{
  "source": "patent US8569499B2",
  "about": "“Process for making trans-1-((1R,3S)-6-chloro-3-phenylindan-1-yl)-3,3-dimethylpiperazine” (H. Lundbeck A/S, priority 2005, dated 2013)",
  "key": {"[1]": {"tested_on": "pigs sensitized to haloperidol", "assay": "dystonia in pigs sensitized to haloperidol", "format": "in vivo"}, "[2]": {"biological_target": "dopamine (DA) D1 receptors (Homo sapiens, UniProt P21728)", "sequence (P21728 whole entry)": "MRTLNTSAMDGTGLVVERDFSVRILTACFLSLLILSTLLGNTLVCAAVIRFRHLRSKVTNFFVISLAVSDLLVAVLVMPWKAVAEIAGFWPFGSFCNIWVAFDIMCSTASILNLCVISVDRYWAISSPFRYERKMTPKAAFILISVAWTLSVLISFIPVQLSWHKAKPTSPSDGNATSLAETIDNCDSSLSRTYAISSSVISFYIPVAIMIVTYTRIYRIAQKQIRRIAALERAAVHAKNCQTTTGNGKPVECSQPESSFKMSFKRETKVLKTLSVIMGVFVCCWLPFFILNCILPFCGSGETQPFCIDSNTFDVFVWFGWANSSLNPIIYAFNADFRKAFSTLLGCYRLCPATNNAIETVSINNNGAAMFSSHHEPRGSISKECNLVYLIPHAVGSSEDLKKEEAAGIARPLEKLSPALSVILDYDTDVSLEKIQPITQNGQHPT", "settings": "as described in PCT/DK04/000546; cited from earlier work"}, "DA D2 receptors": {"biological_target": "DA D2 receptors (Homo sapiens, UniProt P14416)", "sequence (P14416 whole entry)": "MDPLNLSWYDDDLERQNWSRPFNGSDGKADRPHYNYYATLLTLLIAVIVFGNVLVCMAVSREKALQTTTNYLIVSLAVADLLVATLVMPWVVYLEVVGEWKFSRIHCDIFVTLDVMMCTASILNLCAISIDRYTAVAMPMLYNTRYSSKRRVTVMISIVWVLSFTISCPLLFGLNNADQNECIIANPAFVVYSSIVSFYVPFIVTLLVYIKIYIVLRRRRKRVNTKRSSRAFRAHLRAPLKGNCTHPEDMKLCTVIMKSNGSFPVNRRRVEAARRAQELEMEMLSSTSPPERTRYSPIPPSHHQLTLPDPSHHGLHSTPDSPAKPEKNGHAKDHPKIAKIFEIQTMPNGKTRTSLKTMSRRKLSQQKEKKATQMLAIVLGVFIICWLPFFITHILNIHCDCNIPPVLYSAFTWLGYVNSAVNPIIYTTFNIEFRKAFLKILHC", "settings": "as described in PCT/DK04/000546; cited from earlier work"}, "alfa1 adrenoceptors": {"tested_on": "alfa1 adrenoceptors", "settings": "as described in PCT/DK04/000546; cited from earlier work"}, "dopamine D1 receptors": {"biological_target": "dopamine D1 receptors (Homo sapiens, UniProt P21728)", "sequence (P21728 whole entry)": "as the sequence (P21728 whole entry) above", "settings": "as described in PCT/DK04/000546; cited from earlier work"}, "dopamine D2 receptors": {"biological_target": "dopamine D2 receptors (Homo sapiens, UniProt P14416)", "sequence (P14416 whole entry)": "as the sequence (P14416 whole entry) above", "settings": "as described in PCT/DK04/000546; cited from earlier work"}, "[3]": {"biological_target": "serotonin 5-HT2a receptors (Homo sapiens, UniProt P28223)", "sequence (P28223 whole entry)": "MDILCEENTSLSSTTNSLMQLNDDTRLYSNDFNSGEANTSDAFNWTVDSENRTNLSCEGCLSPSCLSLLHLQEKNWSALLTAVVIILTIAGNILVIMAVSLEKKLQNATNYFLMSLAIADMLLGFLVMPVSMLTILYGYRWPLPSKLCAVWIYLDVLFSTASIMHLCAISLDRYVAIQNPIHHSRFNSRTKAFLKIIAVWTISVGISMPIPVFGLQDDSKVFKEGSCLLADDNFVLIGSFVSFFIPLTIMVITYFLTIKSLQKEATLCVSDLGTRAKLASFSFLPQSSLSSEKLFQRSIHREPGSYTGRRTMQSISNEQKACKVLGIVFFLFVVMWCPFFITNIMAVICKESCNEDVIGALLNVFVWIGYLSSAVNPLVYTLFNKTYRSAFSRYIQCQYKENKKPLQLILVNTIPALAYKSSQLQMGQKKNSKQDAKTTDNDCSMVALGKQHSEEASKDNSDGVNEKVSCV", "settings": "as described in PCT/DK04/000546; cited from earlier work"}, "CYP2D6": {"biological_target": "CYP2D6 (Homo sapiens, UniProt P10635)", "sequence (P10635 whole entry)": "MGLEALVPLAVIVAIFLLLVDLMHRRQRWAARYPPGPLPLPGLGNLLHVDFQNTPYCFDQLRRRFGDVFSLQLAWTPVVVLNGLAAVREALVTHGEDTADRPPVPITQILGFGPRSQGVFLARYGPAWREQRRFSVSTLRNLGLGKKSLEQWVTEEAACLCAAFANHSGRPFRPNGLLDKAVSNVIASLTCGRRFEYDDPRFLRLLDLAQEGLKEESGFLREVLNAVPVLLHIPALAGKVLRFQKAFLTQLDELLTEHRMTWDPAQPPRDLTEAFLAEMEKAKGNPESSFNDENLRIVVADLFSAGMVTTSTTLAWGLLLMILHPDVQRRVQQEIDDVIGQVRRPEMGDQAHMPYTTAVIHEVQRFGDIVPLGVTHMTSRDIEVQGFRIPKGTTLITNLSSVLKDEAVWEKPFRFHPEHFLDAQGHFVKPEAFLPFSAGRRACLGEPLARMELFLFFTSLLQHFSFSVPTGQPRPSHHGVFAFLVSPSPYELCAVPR", "settings": "as described in PCT/DK04/000546; cited from earlier work"}, "rabbit model": {"tested_on": "rabbit model", "settings": "as described in PCT/DK04/000546; cited from earlier work"}},
  "data": [
    {"smiles": "CC1(C)CN([C@@H]2C[C@@H](c3ccccc3)c3ccc(Cl)cc32)CCN1", "note": "[Compound I, trans-1-((1R,3S)-6-chloro-3-phenylindan-1-yl)-3,3-dimethylpiperazine]", "values": [
      {"measurement": "induction of dystonia (EPS liability)", "setting": "[1]", "result": "did not induce dystonia"},
      {"measurement": "affinity for dopamine (DA) D1 receptors", "setting": "[2]", "result": "high affinity"},
      {"measurement": "affinity for DA D2 receptors", "setting": "DA D2 receptors", "result": "high affinity"},
      {"measurement": "affinity for alfa1 adrenoceptors", "setting": "alfa1 adrenoceptors", "result": "high affinity"},
      {"measurement": "functional activity at dopamine D1 receptors", "setting": "dopamine D1 receptors", "result": "antagonist"},
      {"measurement": "functional activity at dopamine D2 receptors", "setting": "dopamine D2 receptors", "result": "antagonist"},
      {"measurement": "functional activity at serotonin 5-HT2a receptors", "setting": "[3]", "result": "antagonist"},
      {"measurement": "inhibition of CYP2D6", "setting": "CYP2D6", "result": "relatively weak inhibitor"},
      {"measurement": "effect on the QT interval", "setting": "rabbit model", "result": "relatively low effect"}
    ]}
  ]
}
